Source: patent publication US6914045B2, “Glycopeptide antibiotics” (Wyeth Holdings Corporation, priority 2001, dated 2005)

Assays:
Assay in all cases: in vitro antibacterial evaluation, MIC by broth dilution
Type in all cases: cell-based
Staphylococcus sp. = settings: broth dilution, 18 hours at 35° C.
How it was run: (§1)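 Read-out: the lowest concentration at which the test strain fails to grow. Serial dilutions (64-0.06 μg/mL) in Muller-Hinton II […], 5×10^5 CFU/mL inoculum, NCCLS M7-A2 procedure.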

Enterococcus sp. = settings: broth dilution, 18 hours at 35° C.
How it was run: as §1

Streptococcus sp. = settings: broth dilution, 18 hours at 35° C.
How it was run: as §1

Escherichia coli = settings: 18 hours at 35° C.

COc1ccc(COCC2OC(OC3C(CO)OC(Oc4ccc(CC5NC(=O)C(C(C)c6ccccc6)NC(=O)CNC(=O)C(CO)NC(=O)C(C(O)C6CNC(=N)N6C6OC(CO)C(O)C(O)C6O)NC(=O)C(C(O)C6CNC(=N)N6)NC5=O)cc4)C(O)C3O)C(O)C(O)C2O)cc1 (stereo not shown) [Example 232]
4 µg/mL: MIC Coagulase Negative Staphylococcus (GC 4551) (Staphylococcus sp.) | MIC Staphylococcus aureus (ATCC 29213) (Staphylococcus sp.) | MIC Staphylococcus aureus (GC 1131) (Staphylococcus sp.) | MIC Staphylococcus aureus (GC 3051) (Staphylococcus sp.) | MIC Staphylococcus aureus (GC 4541) (Staphylococcus sp.) | MIC Staphylococcus aureus (GC 4542) (Staphylococcus sp.) | MIC Staphylococcus aureus (GC 4544) (Staphylococcus sp.) | MIC Staphylococcus aureus (GC 4545) (Staphylococcus sp.) | MIC Staphylococcus aureus-SMITH (GC 4543) (Staphylococcus sp.) | MIC Staphylococcus aureus (ATCC 29213) (Staphylococcus sp.; strain ATCC 29213) | MIC Staphylococcus aureus (GC 1131) (Staphylococcus sp.; strain GC 1131) | MIC Staphylococcus aureus (GC 3051) (Staphylococcus sp.; strain GC 3051) | MIC Staphylococcus aureus (GC 4541) (Staphylococcus sp.; strain GC 4541) | MIC Staphylococcus aureus (GC 4542) (Staphylococcus sp.; strain GC 4542) | MIC Staphylococcus aureus-SMITH (GC 4543) (Staphylococcus sp.; strain GC 4543) | MIC Staphylococcus aureus (GC 4544) (Staphylococcus sp.; strain GC 4544) | MIC Staphylococcus aureus (GC 4545) (Staphylococcus sp.; strain GC 4545) | MIC Coagulase Negative Staphylococcus (GC 4551) (Staphylococcus sp.; strain GC 4551) | MIC Enterococcus faecium (GC 4557) (Enterococcus sp.) | MIC Enterococcus faecium (GC 4557) (Enterococcus sp.; inoculum 5×10^5 CFU/mL, strain GC 4557)
0.5 µg/mL: MIC Streptococcus pneumoniae (ATCC 6301) (Streptococcus sp.) | MIC Streptococcus pneumoniae (GC 1894) (Streptococcus sp.) | MIC Streptococcus pneumoniae (ATCC 6301) (Streptococcus sp.; inoculum 5×10^5 CFU/mL, strain ATCC 6301) | MIC Streptococcus pneumoniae (GC 1894) (Streptococcus sp.; inoculum 5×10^5 CFU/mL, strain GC 1894)
1 µg/mL: MIC Coagulase Negative Staphylococcus (GC 4549) (Staphylococcus sp.) | MIC Coagulase Negative Staphylococcus (GC 4549) (Staphylococcus sp.; strain GC 4549) | MIC Streptococcus pneumoniae (GC 4565) (Streptococcus sp.) | MIC Streptococcus pneumoniae (GC 4565) (Streptococcus sp.; inoculum 5×10^5 CFU/mL, strain GC 4565)
8 µg/mL: MIC Staphylococcus aureus (GC 3053) (Staphylococcus sp.) | MIC Staphylococcus aureus (GC 3053) (Staphylococcus sp.; strain GC 3053)
64 µg/mL: MIC Enterococcus faecalis (GC 6189) (Enterococcus sp.) | MIC Enterococcus faecalis (GC 6189) (Enterococcus sp.; inoculum 5×10^5 CFU/mL, strain GC 6189) | MIC Escherichia coli (GC 4559) (Escherichia coli)
32 µg/mL: MIC Enterococcus avium (GC 4558) (Enterococcus sp.) | MIC Enterococcus faecalis (ATCC 29212) (Enterococcus sp.) | MIC Enterococcus faecalis (GC 2691) (Enterococcus sp.) | MIC Enterococcus faecalis (GC 3059) (Enterococcus sp.) | MIC Enterococcus faecalis (GC 4552) (Enterococcus sp.) | MIC Enterococcus faecalis (GC 4553) (Enterococcus sp.) | MIC Enterococcus faecalis (GC 4554) (Enterococcus sp.) | MIC Enterococcus faecium (GC 4556) (Enterococcus sp.) | MIC Enterococcus faecalis (ATCC 29212) (Enterococcus sp.; inoculum 5×10^5 CFU/mL, strain ATCC 29212) | MIC Enterococcus faecalis (GC 2691) (Enterococcus sp.; inoculum 5×10^5 CFU/mL, strain GC 2691) | MIC Enterococcus faecalis (GC 3059) (Enterococcus sp.; inoculum 5×10^5 CFU/mL, strain GC 3059) | MIC Enterococcus faecalis (GC 4552) (Enterococcus sp.; inoculum 5×10^5 CFU/mL, strain GC 4552) | MIC Enterococcus faecalis (GC 4553) (Enterococcus sp.; inoculum 5×10^5 CFU/mL, strain GC 4553) | MIC Enterococcus faecalis (GC 4554) (Enterococcus sp.; inoculum 5×10^5 CFU/mL, strain GC 4554) | MIC Enterococcus faecium (GC 4556) (Enterococcus sp.; inoculum 5×10^5 CFU/mL, strain GC 4556) | MIC Enterococcus avium (GC 4558) (Enterococcus sp.; inoculum 5×10^5 CFU/mL, strain GC 4558)
16 µg/mL: MIC Enterococcus faecalis (GC 2242) (Enterococcus sp.) | MIC Enterococcus faecium (GC 2243) (Enterococcus sp.) | MIC Enterococcus faecalis (GC 2242) (Enterococcus sp.; inoculum 5×10^5 CFU/mL, strain GC 2242) | MIC Enterococcus faecium (GC 2243) (Enterococcus sp.; inoculum 5×10^5 CFU/mL, strain GC 2243)
>64 µg/mL: MIC Escherichia coli (ATCC 25922) (Escherichia coli)
2 µg/mL: MIC Coagulase Negative Staphylococcus (GC 4547) (Staphylococcus sp.) | MIC Coagulase Negative Staphylococcus (GC 4548) (Staphylococcus sp.) | MIC Coagulase Negative Staphylococcus (GC 6257) (Staphylococcus sp.) | MIC Staphylococcus haemolyticus (GC 4546) (Staphylococcus sp.) | MIC Staphylococcus haemolyticus (GC 4546) (Staphylococcus sp.; strain GC 4546) | MIC Coagulase Negative Staphylococcus (GC 4547) (Staphylococcus sp.; strain GC 4547) | MIC Coagulase Negative Staphylococcus (GC 4548) (Staphylococcus sp.; strain GC 4548) | MIC Coagulase Negative Staphylococcus (GC 6257) (Staphylococcus sp.; strain GC 6257) | MIC Streptococcus agalactiae (GC 4564) (Streptococcus sp.) | MIC Streptococcus pyogenes (GC 4563) (Streptococcus sp.) | MIC Streptococcus pyogenes (GC 4563) (Streptococcus sp.; inoculum 5×10^5 CFU/mL, strain GC 4563) | MIC Streptococcus agalactiae (GC 4564) (Streptococcus sp.; inoculum 5×10^5 CFU/mL, strain GC 4564) | MIC Escherichia coli (GC 4560) (Escherichia coli)
